{
  "source": "patent US9363996B2",
  "about": "“Compositions and method for blocking ethylene response in field crops using 3-(cy-clopropyl-l-enyl)-propanoic salt” (Yissum Research Development Company of the Hebrew …, priority 2009, dated 2016)",
  "key": {"[1]": {"tested_on": "young cotton leaf explants", "experiment": "Ethylene-induced petiole abscission of young cotton leaf explants", "type": "in vivo, cotton (Gossyium hirsutum barbadense L.)", "protocol": "(1) Abscission—This is a very sensitive model system for studying the effects of plant hormones. Ethylene induces the process of abscission, while auxin delays it. In the laboratory the experimental system is based on plant organ explants, which include the abscission zone. Abscission is induced by exposure to ethylene and at the termination of the experiment the number of abscised organs, usually either leaf blades or petioles are counted and the fraction of abscission is calculated. In the case of fruit, the decrease in fruit retention force is analyzed. In cotton, when WS-CPD (the ethylene-action antagonist herein disclosed) is tested, the whole plants or explants are pretreated by spraying with the antagonist, dissolved in a phosphate buffer solution (10-20 mM, pH 7.0) including 0.1% commercially available Kinetic™ as surfactant, and left to incubate for a predetermined time, usually between 6 and 24 h. The plants or explants are then further exposed for 24 h to ethylene gas (5 to 20 μL L^−1). The plants or explants are then ventilated and incubated for the required time under controlled conditions. At the end of the experiment the percentage of abscission is determined. (2) Chlorophyll degradation—This is a standard model for studying senescence. Plant material (whole plants, excised leaves or leaf discs) are pretreated. In cotton, tobacco and wheat, when WS-CPD is tested, the whole plants or explants are pretreated by spraying with the antagonist, dissolved in phosphate buffer solution (10-20 mM, pH 7.0) including 0.1% commercially available Kinetic™ surfactant, and left to incubate for a predetermined time, usually between 6 and 241. […] At the end of the experiment a dimethylsulfoxide (DMSO) extract of the plant tissue is prepared, and the chlorophyll content of the extract is determined by spectrophotometric analysis. […] The extent of ethylene-induced epinasty of leaves is determined by measuring the change of the angle between the petiole and the stem shoot or blade. […]"}, "wheat plants": {"tested_on": "wheat plants", "experiment": "Wheat grain yield, 450 ml pots in peat-based medium", "type": "in vivo, wheat (Triticum turgidum var. 'Gdera')", "settings": "one spray WS-CPD 120 μl L^−1 (so in the source) at milky stage II", "protocol": "In another experiment the wheat plants were grown in 450 ml pots in a peat-based medium. The plants were sprayed once with WS-CPD (120 μl L^−1) at milky stage II, 7 months after germination. The results confirmed previous results, showing a −15% increase in grain yield over the weight of the grains of untreated control plants (FIG. 54). This is also evident when calculating the distribution of grain weight (as percentage of the total number of grains) and comparing them with grain weight distribution from control plants."}},
  "data": [
    {"smiles": "O=C([O-])CCC1=CC1.[Na+]", "note": "[WS-CPD, 3-cyclopropyl-1-enyl-propanoic sodium salt]", "values": [
      {"measurement": "abscission percentage of explants", "setting": "[1]; WS-CPD 300 μg mL^−1", "value": "lower than the air control treatment"},
      {"measurement": "decrease of abscission", "setting": "[1]; WS-CPD 10 to 30 μg mL^−1, throughout the experiment, ethylene-treated explants", "value": "about 20%"},
      {"measurement": "increase in grain yield over untreated control plants", "setting": "wheat plants", "value": "−15", "unit": "%"}
    ]}
  ]
}
